{"source": "patent US9260425B2", "about": "(Genetech, Inc., priority 2011, dated 2016)", "note": "pKi: −log10 of the molar value.", "data": [{"target": "Pim-1 (Homo sapiens (Human), UniProt P11309)", "sequence (P11309 whole entry)": "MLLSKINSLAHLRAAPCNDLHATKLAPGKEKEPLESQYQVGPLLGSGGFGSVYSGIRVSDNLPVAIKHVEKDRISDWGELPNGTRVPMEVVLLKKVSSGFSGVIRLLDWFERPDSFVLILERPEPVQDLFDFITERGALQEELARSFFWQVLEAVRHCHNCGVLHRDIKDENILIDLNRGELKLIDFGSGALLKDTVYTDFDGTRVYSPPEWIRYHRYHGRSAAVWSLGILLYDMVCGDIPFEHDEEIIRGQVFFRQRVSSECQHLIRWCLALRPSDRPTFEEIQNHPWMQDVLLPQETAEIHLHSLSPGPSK", "test": "Pim kinase binding activity assay (Example 901), PIM-1 enzyme, Caliper microfluidic peptide phosphorylation", "type": "biochemical", "details": "20 pM PIM-1, 10 μM ATP, 1 μM FAM-peptide, 90 minutes at room temperature", "experimental": "Pim Kinase Binding Activity\nA fluorescent-labeled Pim-specific peptide substrate, was custom synthesized by American Peptide Company (Sunnyvale, Calif.). Reaction Buffer contained 10 mM HEPES, pH 7.2, 10 mM MgCl2, 0.01% Tween 20, 2 mM DTT. Termination Buffer contained 190 mM HEPES, pH 7.2, 0.015% Brij-35, 0.2% Coating Reagent 3 (Caliper Life Sciences, Hopkinton, Mass.), 20 mM EDTA. Separation Buffer contained 100 mM HEPES, pH 7.2, 0.015% Brij-35, 0.1% Coating Reagent 3, 1:200 Coating Reagent 8 (Caliper Life Sciences, Hopkinton, Mass.), 10 mM EDTA and 5% DMSO.\nPIM reactions were carried out in a final volume of 10 μL per well in a 384-well plate. A standard enzymatic reaction, initiated by the addition of 5 μL 2×ATP and test compound to 5 μL of 2× enzyme and FAM-peptide, contained 20 pM PIM-1, 50 pM PIM-2, or 55 pM PIM-3, 1 μM FAM-peptide, and 10 μM ATP, in Reaction Buffer. After 90 minutes of incubation at room temperature, the phosphorylation reaction was stopped by the addition of 10 μL Termination Buffer. The product and substrate in each independent reaction were separated on a 12-sipper microfluidic chip (Caliper Life Sciences, Hopkinton, Mass.) run on a Caliper LC3000® (Caliper Life Sciences, Hopkinton, Mass.). The separation of product and substrate was optimized by choosing voltages and pressure using Caliper's Optimizer software (Hopkinton, Mass.). […] The product and substrate fluorophore were excited at 488 nm and detected at 530 nm. Substrate conversion was calculated from the electropherogram using HTS Well Analyzer software (Caliper Life Sciences, Hopkinton, Mass.). Ki values for the test compound were calculated.", "values": [{"molecule": "CN1CCN(c2cc3c(-c4cnn(C)c4)n[nH]c3cn2)CC1=O", "note": "[Example 331, 1-methyl-4-(3-(1-methyl-1H-pyrazol-4-yl)-1H-pyrazolo[3,4-c]pyridin-5-yl)piperazin-2-one]", "pKi": 6.14}, {"molecule": "FCCn1cc(-c2cc3c(-c4cccc(N5CCNCC5)n4)n[nH]c3cn2)cn1", "note": "[Example 391, 5-(1-(2-fluoroethyl)-1H-pyrazol-4-yl)-3-(6-(piperazin-1-yl)pyridin-2-yl)-1H-pyrazolo[3,4-c]pyridine]", "pKi": 9.97}, {"molecule": "CCn1cc(-c2cc3c(-c4ccc(C(C)C)c(N5CCC[C@H](N)C5)n4)n[nH]c3cn2)cn1", "note": "[Example 478, (S)-1-(6-(5-(1-ethyl-1H-pyrazol-4-yl)-1H-pyrazolo[3,4-c]pyridin-3-yl)-3-isopropylpyridin-2-yl)piperidin-3-amine]", "pKi": 10.70}, {"molecule": "N[C@@H]1CCCCN(c2cccc(-c3n[nH]c4cnc(-c5cnn(CCF)c5)cc34)n2)C1", "note": "[Example 520, (R)-1-(6-(5-(1-(2-fluoroethyl)-1H-pyrazol-4-yl)-1H-pyrazolo[3,4-c]pyridin-3-yl)pyridin-2-yl)azepan-3-amine]", "pKi": 10.01}, {"molecule": "Cn1ccc(-c2n[nH]c3cnc(-c4cncc(N5CCC(N)CC5)n4)cc23)n1", "note": "[Example 233, 1-(6-(3-(1-methyl-1H-pyrazol-3-yl)-1H-pyrazolo[3,4-c]pyridin-5-yl)pyrazin-2-yl)piperidin-4-amine]", "pKi": 10.29}, {"molecule": "c1cncc(-c2cc3c(-c4cccnc4)n[nH]c3cn2)c1", "note": "[Example 176, 3,5-di(pyridin-3-yl)-1H-pyrazolo[3,4-c]pyridine]", "pKi": 8.19}, {"molecule": "CCc1ccc(-c2n[nH]c3cnc(-c4cnn(C)c4)cc23)nc1N1CCC[C@H](N)C1", "note": "[Example 429, (S)-1-(3-ethyl-6-(5-(1-methyl-1H-pyrazol-4-yl)-1H-pyrazolo[3,4-c]pyridin-3-yl)pyridin-2-yl)piperidin-3-amine]", "pKi": 10.66}, {"molecule": "N#CCc1n[nH]c2cnc(-c3cccnc3)cc12", "note": "[Example 134, 2-(5-(pyridin-3-yl)-1H-pyrazolo[3,4-c]pyridin-3-yl)acetonitrile]", "pKi": 6.08}, {"molecule": "CN1CCN(c2n[nH]c3cnc(-c4cccnc4)cc23)C1=O", "note": "[Example 254, 1-methyl-3-(5-(pyridin-3-yl)-1H-pyrazolo[3,4-c]pyridin-3-yl)imidazolidin-2-one]", "pKi": 7.73}, {"molecule": "O=C1CCCCN1c1n[nH]c2cnc(-c3cccnc3)cc12", "note": "[Example 260, 1-(5-(pyridin-3-yl)-1H-pyrazolo[3,4-c]pyridin-3-yl)piperidin-2-one]", "pKi": 5.96}, {"molecule": "N[C@@H]1CCN(c2cccc(-c3n[nH]c4cnc(-c5cccnc5)cc34)n2)C1", "note": "[Example 276, (R)-1-(6-(5-(pyridin-3-yl)-1H-pyrazolo[3,4-c]pyridin-3-yl)pyridin-2-yl)pyrrolidin-3-amine]", "pKi": 9.73}, {"molecule": "C=C(C)c1ccnc(-c2n[nH]c3cnc(-c4cnn(CC)c4)cc23)c1", "note": "[Example 500, 5-(1-ethyl-1H-pyrazol-4-yl)-3-(4-(prop-1-en-2-yl)pyridin-2-yl)-1H-pyrazolo[3,4-c]pyridine]", "pKi": 7.27}, {"molecule": "NC1CCN(C(=O)C2CCN(c3n[nH]c4cnc(-c5cccnc5)cc34)C2=O)CC1", "note": "(stereo not shown) [Example 325, 3-(4-aminopiperidine-1-carbonyl)-1-(5-(pyridin-3-yl)-1H-pyrazolo[3,4-c]pyridin-3-yl)pyrrolidin-2-one]", "pKi": 6.97}, {"molecule": "Cc1ccc(-c2n[nH]c3cnc(-c4cccnc4)cc23)nc1N1CCN(C)CC1", "note": "[Example 257, 3-(5-methyl-6-(4-methylpiperazin-1-yl)pyridin-2-yl)-5-(pyridin-3-yl)-1H-pyrazolo[3,4-c]pyridine]", "pKi": 10.49}, {"molecule": "NC(=O)c1cccc(-c2n[nH]c3cnc(-c4cccnc4)cc23)c1", "note": "[Example 125, 3-(5-(pyridin-3-yl)-1H-pyrazolo[3,4-c]pyridin-3-yl)benzamide]", "pKi": 6.51}, {"molecule": "Cc1cncc(-c2cc3c(-c4cccc(N5CCNCC5)n4)n[nH]c3cn2)c1", "note": "[Example 384, 5-(5-methylpyridin-3-yl)-3-(6-(piperazin-1-yl)pyridin-2-yl)-1H-pyrazolo[3,4-c]pyridine]", "pKi": 10.39}]}]}
